The text below walks through data of US9682083B2, “Pyrrolo[2,3-D]pyrimidine derivatives, process for their preparation and their use as kinase inhibitors” (NERVIANO MEDICAL SCIENCES S.R.L., priority 2013, dated 2017).

Holding throughout (type): cell-based
Test [1] relates to A2780 ovarian carcinoma. The test can be described thus: In vitro cell proliferation assay (CellTiterGlo), A2780 control line. Conditions: Homo sapiens, antiproliferative activity, 72 hours exposure, non RET-dependent control cell line. The protocol: (§1) In Vitro Cell Proliferation Assay
(§2) To evaluate the antiproliferative activity of a compound of formula (I) the following human cell lines were used: A2780 ovarian carcinoma; TT and MZ-CRC-1 medullary thyroid carcinoma, harboring a mutated RET-C634W and RET-M918T receptor respectively; LC-2/ad human lung adenocarcinoma, harboring the CCDC6-RET fusion protein. Exponentially growing cells were seeded and incubated at 37° C. in a humidified 5% CO2 atmosphere using appropriate medium supplemented with 10% Fetal Bovine Serum. 24 hours following cell plating, scalar doses of the compounds dissolved in 0.1% DMSO were added to the medium and cells were exposed to drugs for either 72 hours (A2780) or 144 hours (TT, MZ-CRC-1 and LC-2/ad), according to their different proliferation rate. At the end of treatment, cell proliferation was determined by an intracellular ATP monitoring system (CellTiterGlo—Promega), following manufacturer's instructions, and using an Envision instrument (PerkinElmer) as reader. Data obtained from compound versus vehicle treated cells were compared using Assay Explorer (Symyx Technologies Inc) software. IC50 values were calculated using sigmoidal interpolation curve fitting.
(§3) In the following Table A the antiproliferative activity of representative compounds of formula (I) on two medullary thyroid carcinoma cell lines expressing the aforementioned mutated forms of RET (TT and MZ-CRC-1) and on one lung adenocarcinoma cell line harboring the aforementioned fusion form of RET (LC-2/ad) is reported. As control, the antiproliferative activity of the same compounds on an unrelated non RET-dependent cell line (A2780) is reported. All these compounds show remarkable activity on RET-driven cellular models with respect to the unrelated ones.
On the technique in general: ATP-based viability assays read luminescence as a measure of living cells.

Test [2] concerns TT medullary thyroid carcinoma, harboring a mutated RET-C634W receptor. Nature of the test: In vitro cell proliferation assay (CellTiterGlo), TT. Conditions: Homo sapiens, antiproliferative activity, 144 h exposure. How it is done:
as §1, §2, §3

For test [3], the system named is LC-2/ad human lung adenocarcinoma, harboring the CCDC6-RET fusion protein. The test can be described thus: In vitro cell proliferation assay (CellTiterGlo), LC-2/ad. Particulars: antiproliferative activity, 144 h exposure. How it is done: as §1, §2, §3
Test [4] concerns MZ-CRC-1 medullary thyroid carcinoma, harboring a mutated RET-M918T receptor. The test can be described thus: In vitro cell proliferation assay (CellTiterGlo), MZ-CRC-1. Particulars: Homo sapiens, antiproliferative activity, 144 h exposure. The protocol: as §1, §2, §3

Each structure is given as a SMILES string.

For the molecule `CCN1CCN(Cc2ccc(NC(=O)Cc3cccc(C#Cc4c[nH]c5ncnc(N)c45)c3)cc2C(F)(F)F)CC1` [cmpd 12, 2-[3-(4-Amino-7H-pyrrolo[2,3-d]pyrimidin-5-ylethynyl)-phenyl]-N-[4-(4-ethyl-piperazin-1-ylmethyl)-3-trifluoromethyl-phenyl]-acetamide], the IC50 in test [1] worked out at 695 nM; in test [2] it was 0.012 µM; in test [3] it was 0.111 µM; in test [4], 0.222 µM.
On the same counts, the results for `Nc1ncnc2c1c(C#Cc1cc(C(=O)NC3CC3)ccc1F)cn2CC(F)(F)F` [cmpd 54, 3-{[4-amino-7-(2,2,2-trifluoroethyl)-7H-pyrrolo[2,3-d]pyrimidin-5-yl]ethynyl}-N-cyclopropyl-4-fluorobenzamide] are 3290 nM, 0.02 µM, 0.053 µM and 0.068 µM.
For `Nc1ncnc2c1c(C#Cc1cc(F)cc(C(=O)NC3CC3)c1)cn2CC(F)(F)F` [cmpd 59, 3-{[4-amino-7-(2,2,2-trifluoroethyl)-7H-pyrrolo[2,3-d]pyrimidin-5-yl]ethynyl}-N-cyclopropyl-5-fluorobenzamide] the same measures were 2140 nM, 0.036 µM, 0.048 µM and 0.04 µM.
For `CC(C)n1cc(C#Cc2cccc(C(=O)NC3CC3)c2)c2c(N)ncnc21` [cmpd 40, 3-{[4-amino-7-(propan-2-yl)-7H-pyrrolo[2,3-d]pyrimidin-5-yl]ethynyl}-N-cyclopropylbenzamide], the IC50 is 1930 nM in test [1], 0.022 µM in test [2], 0.033 µM in test [3] and 0.049 µM in test [4].
On the same counts, the results for `Nc1ncnc2[nH]cc(C#Cc3cccc(NC(=O)c4cccc(C(F)(F)F)c4)c3)c12` [cmpd 24, N-{3-[(4-amino-7H-pyrrolo[2,3-d]pyrimidin-5-yl)ethynyl]phenyl}-3-(trifluoromethyl)benzamide] are 137 nM, 0.003 µM, 0.066 µM and 0.024 µM.
For `Nc1ncnc2c1c(C#Cc1cccc(C(=O)NC3CC3)c1)cn2CCO` [cmpd 37, 3-{[4-amino-7-(2-hydroxyethyl)-7H-pyrrolo[2,3-d]pyrimidin-5-yl]ethynyl}-N-cyclopropylbenzamide] the same measures were 6790 nM, 0.109 µM, 0.115 µM and 0.271 µM.
On the same counts, the results for `Nc1ncnc2c1c(C#Cc1cccc(C(=O)NC3CC3)c1)cn2CC(F)(F)F` [cmpd 36, 3-{[4-amino-7-(2,2,2-trifluoroethyl)-7H-pyrrolo[2,3-d]pyrimidin-5-yl]ethynyl}-N-cyclopropylbenzamide] are 1730 nM, 0.053 µM, 0.058 µM and 0.166 µM.
`Cc1ccc(C(=O)NC2CC2)cc1C#Cc1cn(CC(F)(F)F)c2ncnc(N)c12` [cmpd 52, 3-{[4-amino-7-(2,2,2-trifluoroethyl)-7H-pyrrolo[2,3-d]pyrimidin-5-yl]ethynyl}-N-cyclopropyl-4-methylbenzamide]: the half-inhibitory concentration (IC50) in test [1] came to 3910 nM; in test [2] it was 0.1 µM; in test [3], 0.107 µM; in test [4], 0.201 µM.
For `Cn1cc(C#Cc2cccc(C(=O)NC3CC3)c2)c2c(N)ncnc21` [cmpd 93, 3-[(4-amino-7-methyl-7H-pyrrolo[2,3-d]pyrimidin-5-yl)ethynyl]-N-cyclopropylbenzamide] the same measures were 4540 nM, 0.035 µM, 0.241 µM and 0.264 µM.

In general, IC50 refers to the concentration needed to halve the response being measured.
